Laboratory results taken from PubChem BioAssay (NCI).
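Protocol summary: plate cells (96-well), add compound at 5 concentrations, incubate 48 h, interpolate endpoints linearly. GI50: concentration for 50% inhibition of growth. TGI is the concentration that stops growth completely.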

Key:
Test in all cases: growth of human tumour cells (NCI), 48 h
786-0 renal = tested on: 786-0 renal
A498 renal = tested on: A498 renal
A549 NSCLC = tested on: A549 NSCLC
ACHN renal = tested on: ACHN renal
BT-549 breast = tested on: BT-549 breast
CAKI-1 renal = tested on: CAKI-1 renal
CCRF-CEM leukemia = tested on: CCRF-CEM leukemia
COLO 205 colon = tested on: COLO 205 colon
DU-145 prostate = tested on: DU-145 prostate
EKVX NSCLC = tested on: EKVX NSCLC
HCC-2998 colon = tested on: HCC-2998 colon
HCT-116 colon = tested on: HCT-116 colon
HCT-15 colon = tested on: HCT-15 colon
HOP-62 NSCLC = tested on: HOP-62 NSCLC
HS 578T breast = tested on: HS 578T breast
HT29 colon = tested on: HT29 colon
IGROV1 ovarian = tested on: IGROV1 ovarian
K-562 leukemia = tested on: K-562 leukemia
KM12 colon = tested on: KM12 colon
LOX IMVI melanoma = tested on: LOX IMVI melanoma
M14 melanoma = tested on: M14 melanoma
MALME-3M melanoma = tested on: MALME-3M melanoma
MCF7 breast = tested on: MCF7 breast
MDA-MB-231 breast = tested on: MDA-MB-231 breast
MDA-MB-435 = tested on: MDA-MB-435
MOLT-4 leukemia = tested on: MOLT-4 leukemia
NCI-H226 lung = tested on: NCI-H226 lung
NCI-H23 lung = tested on: NCI-H23 lung
NCI-H460 lung = tested on: NCI-H460 lung
NCI-H522 lung = tested on: NCI-H522 lung
NCI/ADR-RES ovarian = tested on: NCI/ADR-RES ovarian
OVCAR-3 ovarian = tested on: OVCAR-3 ovarian
OVCAR-4 ovarian = tested on: OVCAR-4 ovarian
OVCAR-5 ovarian = tested on: OVCAR-5 ovarian
OVCAR-8 ovarian = tested on: OVCAR-8 ovarian
PC-3 prostate = tested on: PC-3 prostate
RPMI-8226 leukemia = tested on: RPMI-8226 leukemia
SF-268 CNS = tested on: SF-268 CNS
SF-295 CNS = tested on: SF-295 CNS
SF-539 CNS = tested on: SF-539 CNS
SK-MEL-2 melanoma = tested on: SK-MEL-2 melanoma
SK-MEL-28 melanoma = tested on: SK-MEL-28 melanoma
SK-MEL-5 melanoma = tested on: SK-MEL-5 melanoma
SK-OV-3 ovarian = tested on: SK-OV-3 ovarian
SN12C renal = tested on: SN12C renal
SNB-19 CNS = tested on: SNB-19 CNS
SNB-75 CNS = tested on: SNB-75 CNS
SR leukemia = tested on: SR leukemia
SW-620 colon = tested on: SW-620 colon
T-47D breast = tested on: T-47D breast
TK-10 renal = tested on: TK-10 renal
U251 CNS = tested on: U251 CNS
UACC-257 melanoma = tested on: UACC-257 melanoma
UACC-62 melanoma = tested on: UACC-62 melanoma
UO-31 renal = tested on: UO-31 renal

O=C(Nc1ccc(Br)cc1)c1cc(Br)cc(Br)c1O
GI50 (786-0 renal): 3.02 µM
TGI (786-0 renal): 29.7 µM
GI50 (A498 renal): 1.82 µM
TGI (A498 renal): 4.37 µM
GI50 (A549 NSCLC): 2.65 µM
TGI (A549 NSCLC): 7.9 µM
GI50 (ACHN renal): 2.31 µM
TGI (ACHN renal): 6.66 µM
GI50 (BT-549 breast): 3.08 µM
TGI (BT-549 breast): 14.4 µM
GI50 (CAKI-1 renal): 1.73 µM
TGI (CAKI-1 renal): 4.59 µM
GI50 (CCRF-CEM leukemia): 3.73 µM
TGI (CCRF-CEM leukemia): > 100 µM
GI50 (COLO 205 colon): 2.33 µM
TGI (COLO 205 colon): 4.59 µM
GI50 (DU-145 prostate): 3.56 µM
TGI (DU-145 prostate): 19.9 µM
GI50 (EKVX NSCLC): 1.76 µM
TGI (EKVX NSCLC): 7.38 µM
GI50 (HCC-2998 colon): 3.35 µM
TGI (HCC-2998 colon): 10.1 µM
GI50 (HCT-116 colon): 2.41 µM
TGI (HCT-116 colon): 8.31 µM
GI50 (HCT-15 colon): 3.2 µM
TGI (HCT-15 colon): 13.5 µM
GI50 (HOP-62 NSCLC): 2.45 µM
TGI (HOP-62 NSCLC): 6.5 µM
GI50 (HS 578T breast): 2.71 µM
TGI (HS 578T breast): 7.74 µM
GI50 (HT29 colon): 4.02 µM
TGI (HT29 colon): 22.7 µM
GI50 (IGROV1 ovarian): 3.02 µM
TGI (IGROV1 ovarian): 15.6 µM
GI50 (K-562 leukemia): 3.1 µM
TGI (K-562 leukemia): > 100 µM
GI50 (KM12 colon): 2.59 µM
TGI (KM12 colon): 8.09 µM
GI50 (LOX IMVI melanoma): 3.24 µM
TGI (LOX IMVI melanoma): 10.1 µM
GI50 (M14 melanoma): 2.99 µM
TGI (M14 melanoma): 11.3 µM
GI50 (MALME-3M melanoma): 2.15 µM
TGI (MALME-3M melanoma): 5.63 µM
GI50 (MCF7 breast): 2.46 µM
TGI (MCF7 breast): > 100 µM
GI50 (MDA-MB-231 breast): 2.08 µM
TGI (MDA-MB-231 breast): 6.28 µM
GI50 (MDA-MB-435): 2.27 µM
TGI (MDA-MB-435): 6.09 µM
GI50 (MOLT-4 leukemia): 3.83 µM
TGI (MOLT-4 leukemia): > 100 µM
GI50 (NCI-H226 lung): 3.45 µM
TGI (NCI-H226 lung): 12.3 µM
GI50 (NCI-H23 lung): 2.18 µM
TGI (NCI-H23 lung): 6.8 µM
GI50 (NCI-H460 lung): 2.6 µM
TGI (NCI-H460 lung): 6.86 µM
GI50 (NCI-H522 lung): 2.23 µM
TGI (NCI-H522 lung): 7.7 µM
GI50 (NCI/ADR-RES ovarian): 2.94 µM
TGI (NCI/ADR-RES ovarian): 9.47 µM
GI50 (OVCAR-3 ovarian): 2.95 µM
TGI (OVCAR-3 ovarian): 8 µM
GI50 (OVCAR-4 ovarian): 3.33 µM
TGI (OVCAR-4 ovarian): > 100 µM
GI50 (OVCAR-5 ovarian): 2.7 µM
TGI (OVCAR-5 ovarian): 19.6 µM
GI50 (OVCAR-8 ovarian): 2.89 µM
TGI (OVCAR-8 ovarian): 11 µM
GI50 (PC-3 prostate): 2.65 µM
TGI (PC-3 prostate): 8.82 µM
GI50 (RPMI-8226 leukemia): 1.67 µM
TGI (RPMI-8226 leukemia): 6.26 µM
GI50 (SF-268 CNS): 3.59 µM
TGI (SF-268 CNS): 18.6 µM
GI50 (SF-295 CNS): 1.83 µM
TGI (SF-295 CNS): 5 µM
GI50 (SF-539 CNS): 2.89 µM
TGI (SF-539 CNS): 12.4 µM
GI50 (SK-MEL-2 melanoma): 2.27 µM
TGI (SK-MEL-2 melanoma): 6.12 µM
GI50 (SK-MEL-28 melanoma): 4.71 µM
TGI (SK-MEL-28 melanoma): 31.4 µM
GI50 (SK-MEL-5 melanoma): 2.15 µM
TGI (SK-MEL-5 melanoma): 4.57 µM
GI50 (SK-OV-3 ovarian): 3.14 µM
TGI (SK-OV-3 ovarian): > 100 µM
GI50 (SN12C renal): 2.77 µM
TGI (SN12C renal): 12.9 µM
GI50 (SNB-19 CNS): 3.55 µM
TGI (SNB-19 CNS): > 100 µM
GI50 (SNB-75 CNS): 2.16 µM
TGI (SNB-75 CNS): 7.11 µM
GI50 (SR leukemia): 3.87 µM
TGI (SR leukemia): > 100 µM
GI50 (SW-620 colon): 3.39 µM
TGI (SW-620 colon): 12.6 µM
GI50 (T-47D breast): 2.74 µM
TGI (T-47D breast): 28.4 µM
GI50 (TK-10 renal): 4.2 µM
TGI (TK-10 renal): > 100 µM
GI50 (U251 CNS): 2.79 µM
TGI (U251 CNS): 23.1 µM
GI50 (UACC-257 melanoma): 2.08 µM
TGI (UACC-257 melanoma): 5.41 µM
GI50 (UACC-62 melanoma): 2.56 µM
TGI (UACC-62 melanoma): 15 µM
GI50 (UO-31 renal): 3.1 µM
TGI (UO-31 renal): 11.5 µM
